In publication PMC6788984, “High-potency ligands for DREADD imaging and activation in rodents and monkeys” (Nature Communications, 2019):
Values joined by “and” are separate entries in the source; they are usually repeats but may differ in a detail not shown here. Equal values may be shown once.

How the values were obtained:
hM4Di [1] = biological target: T1, hM4Di (Homo sapiens, UniProt P08173, A203G/Y113C); experiment: [11C]clozapine PET DREADD occupancy in AAV-DREADD mice, hM4Di; conditions: 0.1 mg kg-1 IP, individual values, listed as J52
T1 sequence (P08173 1-479 Y113C/A203G): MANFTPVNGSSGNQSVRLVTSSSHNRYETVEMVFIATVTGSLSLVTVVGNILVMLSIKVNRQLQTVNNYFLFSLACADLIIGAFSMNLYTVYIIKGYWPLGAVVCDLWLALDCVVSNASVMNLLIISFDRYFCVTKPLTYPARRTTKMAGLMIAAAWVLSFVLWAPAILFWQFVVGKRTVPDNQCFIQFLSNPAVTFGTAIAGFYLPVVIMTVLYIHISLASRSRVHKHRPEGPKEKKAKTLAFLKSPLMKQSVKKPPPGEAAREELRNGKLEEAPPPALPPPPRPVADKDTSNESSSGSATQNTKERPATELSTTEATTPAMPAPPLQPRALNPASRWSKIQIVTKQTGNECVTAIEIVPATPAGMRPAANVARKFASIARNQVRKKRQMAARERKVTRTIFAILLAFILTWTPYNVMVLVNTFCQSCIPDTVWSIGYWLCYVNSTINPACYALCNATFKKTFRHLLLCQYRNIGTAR
Experimental: (§1) Animals were anesthetized with isoflurane or a mix of ketamine/xylazine and prepped on a stereotaxic apparatus (Kopf, Germany). […] When indicated, animals were pretreated with vehicle or the indicated drug 10 min before the injection of the PET radiotracer. Total acquisition time was 60 min.
In all cases, the PET data were reconstructed and corrected for dead-time and radioactive decay. All qualitative and quantitative assessments of PET images were performed using the PMOD software environment (PMOD Technologies, Zurich Switzerland). Binding potential BPND (a relative measure of specific binding) was calculated using a reference tissue model using the cerebellum as a reference tissue in rodents. In macaques, the kinetic data were fitted to a two-tissue compartment model and the concentration of parent in plasma was used as an input function, then the volume of distribution ratios compared to cerebellum were calculated to establish BPND. In all cases, the dynamic PET images were coregistered to MRI templates and time-activity curves were generated using predefined volumes of interest (macaques) or manually drawn in rodents and the described analyses were performed. Receptor occupancy was calculated using the formula: occupancy = (BPND^0 − BPND^Drug)/BPND^0 × 100, where BPND^0 is the binding potential of the baseline condition and BPND^Drug the binding potential when the animals were pretreated with the drug.

[2] = system: animals without DREADD expression; experiment: In vivo electrophysiology control: electrically evoked responses in animals without DREADD expression; design: species or system mouse; conditions: same injection
Experimental: For recording experiments, animals were anesthetized with […] urethane (i.p.), injected with 0.1 ml lidocaine (s.c.) in the incision points, and placed in a stereotaxic holder (Narishige, Japan). A trephine was drilled above the LA (from bregma, AP 1.5 mm, ML 3.1 mm) and the 32 channel opto-electrode was lowered whilst stimulating until a maximum response was located (DV 4 ± 0.2 mm). Body temperature was maintained constant at 37 °C through a feedback-regulated heating pad. Before recording, tissue was left for 10–20 mins for accommodation. Input–output test curves were recorded for both intensity and pulse length 30 min before and 1 h after drug injections using 1 ms-long pulses at 0.33 Hz (450 nm, 110 mA light intensity, ~14 mW, see Supplementary Fig. 10 Panel A). For electrical stimulation experiments (see Supplementary Fig. 10, Panels F–H), a stimulation bipolar twisted platinum–iridium microelectrode was placed in the internal capsule (AP −1.7 mm, ML 2.5 mm, DV 4.0 mm) to target the axons innervating the amygdala. Electrical pulses were given at an intensity that evoked 80% of the maximum response as biphasic 100 µs long pulses at 0.33 Hz.
Raw data were filtered (0.1–3000 Hz), amplified (100×), digitized and stored (10 kHz sampling rate) for offline analysis, with a tethered recording system (Multichannel Systems, Reutlingen, Germany). […]

DREADDs = experiment: [18F]JHU37107 PET in D1-DREADD transgenic mice; assay type: in vivo; conditions: D1-DREADD mice, 0.1 mg kg-1 IP
Experimental: [^18F]JHU37107 was prepared via the no-carrier-added ^18F-fluorination using an FDG Nuclear Interface module (Muenster, Germany). Briefly, 4 mg precursor (8-chloro-11-(4-ethylpiperazin-1-yl)-5H-dibenzo[b,e][1,4]diazepin-2-ol) and 8 mg tris(acetonitrile)cyclopentadienylruthenium(II)hexafluorophosphate (STREM, Boston, MA) were dissolved in ethanol (0.3 mL), the solution was heated at 85 °C for 25 min and evaporated to dryness under a stream of argon gas. The residue was dissolved in DMSO (0.5 mL) and acetonitrile (0.5 mL) and the solution was added to a dry complex of [^18F]fluoride and 9 mg 1,3-bis(2,6-di-i-propylphenyl)-2-chloroimidazolium chloride (STREM). The reaction mixture was heated at 130 °C for 30 min, diluted with mixture of 0.5 mL acetonitrile, 0.5 mL water and 0.03 mL TFA and injected onto a semi-preparative HPLC column (Luna C18, 10 micron, 10 mm × 250 mm) and eluted with 23:77 (v:v) acetonitrile:water (0.1% trifluoroacetic acid) at a flow rate of 10 mL min^−1. The radioactive peak corresponding to [^18F]JHU37107 (tR = 9.9 min) was collected in a reservoir containing 50 mL of water and 3 mL aq 8.4% NaHCO3 solution. The diluted product was loaded onto a solid phase extraction cartridge (Waters Oasis HLB plus light) and rinsed with 10 mL sterile saline. The product was eluted with 1000 µL of ethanol through a sterile 0.2 μm filter into a sterile, pyrogen-free vial and 10 mL saline was added through the same filter. The final product [^18F]JHU37107 was then analyzed by analytical HPLC (Luna C18, 10 micron, 4.6 mm × 250 mm; mobile phase 23:77 (v:v) acetonitrile:water (0.1% trifluoroacetic acid), flow rate of 3 mL min^−1; […] .
Total acquisition time was 60 min.

cortical hM4Di = biological target: T2, cortical hM4Di (Homo sapiens, UniProt P08173, A203G/Y113C); experiment: [11C]clozapine PET DREADD occupancy in rats; conditions: rat, read-out: occupancy of cortical hM4Di
T2 sequence (P08173 1-479 Y113C/A203G): T1 sequence (P08173 1-479 Y113C/A203G)
Experimental: as §1
In all cases, the PET data were reconstructed and corrected for dead-time and radioactive decay. All qualitative and quantitative assessments of PET images were performed using the PMOD software environment (PMOD Technologies, Zurich Switzerland). Binding potential BPND (a relative measure of specific binding) was calculated using a reference tissue model using the cerebellum as a reference tissue in rodents. In macaques, the kinetic data were fitted to a two-tissue compartment model and the concentration of parent in plasma was used as an input function, then the volume of distribution ratios compared to cerebellum were calculated to establish BPND. […] Receptor occupancy was calculated using the formula: occupancy = (BPND^0 − BPND^Drug)/BPND^0 × 100, where BPND^0 is the binding potential of the baseline condition and BPND^Drug the binding potential when the animals were pretreated with the drug.

hM4Di [3] = biological target: T1, hM4Di; experiment: DREADD-assisted metabolic mapping (DREAMM), [18F]FDG PET in D1-hM4Di mice; assay type: in vivo, mouse; design: 026219; host or cells: mouse brain, dopamine D1 receptor-expressing neurons (transgene); conditions: 0.1 mg kg-1 IP
Experimental: Mice (D1-hM3Dq, D1-hM4Di or WT littermates, see above) were habituated to experimenter handling and fasted 16 h before the experiment. On the day of the experiment, mice received an IP injection of vehicle (1 ml kg^−1) and were placed back into their home cages. Ten minutes later, mice were injected (IP) with 11 MBq of 2-deoxy-2-[^18F]fluoro-D-glucose (FDG, Cardinal Health) and placed back into their home cages. After 30 min, mice were anesthetized with 1.5% isoflurane, placed on a custom-made bed of a nanoScan small animal PET/CT scanner (Mediso Medical Imaging Systems) and scanned for 20 min on a static acquisition protocol, followed by a CT scan. […] Voxel-based repeated measures with Student’s t test comparing baseline to drug were performed, and the resulting parametric images were filtered for statistically significant (p < 0.05) clusters larger than 100 contiguous voxels. All statistical parametric mapping analyses were performed using Matlab R2016 (Mathworks) and SPM12 (University College London).

CCN1CCN(C2=Nc3cc(Cl)ccc3Nc3cccc(F)c32)CC1 [JHU37152, 8-Chloro-11-(4-ethylpiperazin-1-yl)-1-fluoro-5H-dibenzo[b,e][1,4]diazepine]
displacement of in vivo [11C]clozapine binding, hM4Di (hM4Di [1]): -5.675 and 34.4851 and 23.8214

CCN1CCN(C2=Nc3cc(Cl)ccc3Nc3c(F)cccc32)CC1 [JHU37160, 8-Chloro-11-(4-ethylpiperazin-1-yl)-4-fluoro-5H-dibenzo[b,e][1,4]diazepine]
effect on electrical stimulation evoked responses [2]: no effect | displacement of [18F]JHU37107 PET signal (DREADDs): displaceable | receptor occupancy at 0.1 mg/kg (cortical hM4Di): ~80% | brain metabolism ([18F]FDG) (hM4Di [3]): increased metabolism
